Molecular target: T1, MBR (mitochondrial benzodiazepine receptor) (Rattus norvegicus, UniProt P16257)
T1 construct: from tissue; host or cells: male Wistar rat whole brain with cerebellum removed, crude membrane pellet
Assay: Receptor binding experiment: [3H]PK11195 competition binding, rat brain membrane preparation
Settings: [3H]PK11195 0.5 or 1 nmol/L, 1 hour at room temperature, calculated by Cheng and Prusoff formula from KD and IC50, read-out: Ki value (inhibition constant)
Description: The affinity of the compounds in the present invention to MBR was determined using rat brain membrane preparation. In addition, the measurement in the present invention was improved the accuracy of measurement and the sensitivity of measurement for evaluating the compounds in the present invention as follows. After male Wister rats were decapitated to extirpate the whole brain and cerebellums were removed. They were homogenized in ice-cold 50 mmol/L Tris-HCL buffer solution (pH7.4), centrifuged and the obtained pellets were washed. The pellets resuspended and adjusted to about 1 mg/mL were used as rat brain membrane preparations for binding assay. The binding assay were experimented using [^3H]PK11195 as a MBR selective ligand. […]
To determine the amount of total binding in saturation binding experiment, membrane preparations, various concentrations of [^3H]PK11195, final concentration: 0.5 vol % dimethylsulfoxide (DMSO) and 50 mmol/L Tris-HCL buffer solution (pH7.4) were mixed (total volume 200 μL) and were incubated for 1 hour at room temperature. […] The filter was dried and then the radioactivity on the filter was measured by liquid scintillation counter. The data obtained by the binding experiments were Scatchard analyzed using analysis software, KELL (Ver.6, BIOSOFT) and the dissociation constant (KD value) was determined. […]

Ki: 99 nM
Compound: O=C(CCc1ccccc1)Nc1c2c(nn1-c1ccc(Cl)cc1)CSC2 [Example 8(8), N-[2-(4-chlorophenyl)-2,6-dihydro-4H-thieno[3,4-c]pyrazol-3-yl]-3-phenylpropanamide]

— US20080249154A1, “Preventive and/or Therapeutic Agent For Disease In Which Mitochondrial Benzodiazephine Receptor Participates” (ONO PHARMACEUTICAL CO., LTD., priority 2003, published 2008)
